Literature values as cited in US20080119444A1, “Methods and compositions for the treatment of cancer” (priority 2006, published 2008).

Legend:
early breast cancer = details: for contralateral breast cancers (events) / disease-free survival events / distant metastases (events) / time-to-recurrence events: median follow-up 68 months
[1] = ATAC trial
[2] = in vivo
[3] = system: endocrine-responsive breast cancer; details: adjuvant letrozole compared with tamoxifen, postmenopausal women
HMG-CoA reductase = target: T1, HMG-CoA reductase (Homo sapiens, UniProt P04035)
T1 sequence (P04035 1-888): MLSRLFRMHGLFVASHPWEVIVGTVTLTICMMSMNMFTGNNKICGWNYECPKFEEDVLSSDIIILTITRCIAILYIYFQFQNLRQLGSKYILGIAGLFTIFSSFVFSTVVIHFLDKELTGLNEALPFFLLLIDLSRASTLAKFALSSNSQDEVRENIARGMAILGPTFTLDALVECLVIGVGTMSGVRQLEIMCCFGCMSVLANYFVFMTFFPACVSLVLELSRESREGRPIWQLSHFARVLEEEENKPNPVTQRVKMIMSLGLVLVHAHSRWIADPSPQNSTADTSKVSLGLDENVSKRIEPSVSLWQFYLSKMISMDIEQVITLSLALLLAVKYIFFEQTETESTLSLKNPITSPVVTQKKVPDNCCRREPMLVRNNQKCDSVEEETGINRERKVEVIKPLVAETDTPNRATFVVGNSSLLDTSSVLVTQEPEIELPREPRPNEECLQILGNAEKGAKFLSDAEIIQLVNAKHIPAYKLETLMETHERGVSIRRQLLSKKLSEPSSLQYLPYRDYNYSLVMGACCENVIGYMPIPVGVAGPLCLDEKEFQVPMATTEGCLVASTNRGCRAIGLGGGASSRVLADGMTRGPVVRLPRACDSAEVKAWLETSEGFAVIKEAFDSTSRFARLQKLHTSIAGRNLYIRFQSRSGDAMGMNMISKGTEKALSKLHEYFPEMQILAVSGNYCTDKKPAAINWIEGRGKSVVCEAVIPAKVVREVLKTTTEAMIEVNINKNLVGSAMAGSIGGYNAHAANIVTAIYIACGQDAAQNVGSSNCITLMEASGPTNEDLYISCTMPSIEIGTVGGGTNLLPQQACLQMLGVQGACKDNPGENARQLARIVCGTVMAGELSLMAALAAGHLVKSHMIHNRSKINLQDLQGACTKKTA

[4] = exemestane vs tamoxifen
breast cancer = details: for disease-free survival: after 2 to 3 years of tamoxifen: switch to exemestane or continue tamoxifen, total 5 years, median follow-up 30.6 months
[5] = tamoxifen users
[6] = sequence tamoxifen then exemestane vs continued tamoxifen
[7] = 5 years of tamoxifen treatment, women with ER+ disease
[8] = at 15 years, ER+ (or ER unknown) tumors, 5 years of tamoxifen

Compound	contralateral breast cancers (events) (early breast cancer)	disease-free survival events (early breast cancer)	distant metastases (events) (early breast cancer)	time-to-recurrence events (early breast cancer)	withdrawal rate for drug-related adverse events [1]	fracture rate compared to tamoxifen	potency relative to another statin (HMG-CoA reductase)	disease-free survival (breast cancer)	further results
CC(C)(C#N)c1cc(Cn2cncn2)cc(C(C)(C)C#N)c1 [anastrozole]	35	575 events	324	402	5.1%				reduction of contralateral breast cancers (early breast cancer; anastrozole vs tamoxifen): 42%
N#Cc1ccc(C(c2ccc(C#N)cc2)n2cncn2)cc1 [letrozole]						significantly increase fracture rate			grade 3, 4, or 5 cardiac events [2]: 2.1%; patients with hypercholesterolemia reported at least once during treatment [2]: 43.6%; fracture rate compared to placebo (compared to placebo): non-significant increase in fracture rate; risk of recurrent disease [3]: reduced the risk of recurrent disease
CC(C)c1nc(N(C)S(C)(=O)=O)nc(-c2ccc(F)cc2)c1/C=C/[C@@H](O)C[C@@H](O)CC(=O)O [rosuvastatin]							more potent than atorvastatin		
C=C1C[C@@H]2[C@H](CC[C@]3(C)C(=O)CC[C@@H]23)[C@@]2(C)C=CC(=O)C=C12 [exemestane]						non-significant increase in fracture rate		91.5%	diarrhea [4]: 4.3%; bone loss during treatment (compared to placebo): minor bone loss; absolute difference in disease-free survival (breast cancer; [6]): 4.7%; disease-free survival HR (breast cancer; [6]): 0.68
CC/C(=C(\c1ccccc1)c1ccc(OCCN(C)C)cc1)c1ccccc1 [tamoxifen]	59	651 events	375	498	7.2%			86.8%	10-year risk of mortality from endometrial cancer [5]: 2 per 1000; reduction of annual rate of mortality (ER+ breast cancer; [7]): 34%; reduction of annual rate of recurrence (ER+ breast cancer; [7]): 41%; absolute reduction in mortality (ER+ breast cancer; [8]): 9.2%; absolute reduction in recurrence (ER+ breast cancer; [8]): 11.8%
CC(C)c1c(C(=O)Nc2ccccc2)c(-c2ccccc2)c(-c2ccc(F)cc2)n1CC[C@@H](O)C[C@@H](O)CC(=O)O [Atorvastatin, atorvastatin]							approximately twice as potent as simvastatin		
